Assays:
[1] = test system: rat model of mononeuropathy dx; assay: Paw-pressure test in rat chronic constriction injury model of mononeuropathy, injured paw (dx); type: in vivo; details: i.c.v., dose per compound (3-300 μg); paw-pressure test 14 days after operation
From the text: Pharmacological Methods Chronic Constriction Injury Model
A peripheral mononeuropathy was produced in adult rats by placing loosely constrictive ligatures around the common sciatic nerve according to the method described by Bennett & Xie (Pain […], 33, 87-107).
Rats were anesthetized with chloral hydrate. The common sciatic nerve was exposed at the level of the middle of the thigh by blunt dissection through biceps femoris. Proximal to sciatica's trifurcation, about 1 cm of the nerve was freed of adhering tissue and four ligatures (3/0 silk tread) were tied loosely around it with about 1 mm spacing. The length of the nerve thus affected was […]. Great care was taken to tie the ligatures such that the diameter of the nerve was seen to be just barely constricted when viewed with 40× magnification. The left paw was untouched.
The nociceptive threshold in the rat was determined with an analgesimeter (Ugo Basile, Varese, Italy), according to the method described by Leighton et al. (Br. J. Pharmacol. 1988, 93, 553-560). Rats scoring below 40 g or over 75 g during the test before drug administration (25%) were rejected. An arbitrary cut-off value of 250 g was adopted.

Row | SMILES | melting point [°C] | antihyperalgic effect compared with saline or vehicle treated group [1]
1 | O=C1CCC2N1CC(=O)N2c1cccc(Cl)c1 (stereo not drawn) [Example 11, 1-(3-Chloro-phenyl)-tetrahydro-pyrrolo [1,2-a]imidazole-2,5-dione] | 123 to 125 | –
2 | O=C(O)c1ccc(N2C(=O)CN3C(=O)CCC32)cc1 (stereo not drawn) [Example 35, 4-(2,5-Dioxo-hexahydro-pyrrolo[1,2-a]imidazole-1-yl)-benzoic acid] | 252 to 253 | –
3 | O=C1CCC2N1CC(=O)N2c1ccc(Cl)cc1 (stereo not drawn) [Example 14, 1-(4-Chloro-phenyl)-tetrahydro-pyrrolo [1,2-a]imidazole-2,5-dione] | 159 to 160 | –
4 | O=C1CCC2N1CC(=O)N2c1ccccc1 (stereo not drawn) [Example 1, 1-Phenyl-tetrahydro-1H-pyrrolo[1,2-a]imidazole-2,5-dione] | 185 to 188 | showed an antihyperalgic effect
5 | O=C1CCC2N1CC(=O)N2c1cccs1 (stereo not drawn) [Example 4, 1-Thiophen-2-yl-tetrahydro-pyrrolo[1,2-a]imidazole-2,5-dione] | 170 to 171 | –
6 | N#Cc1ccccc1N1C(=O)CN2C(=O)CCC21 (stereo not drawn) [Example 43, 1-(2-Cyano-phenyl)-tetrahydro-pyrrolo [1,2-a]imidazole-2,5-dione] | 94 to 95 | –
7 | CC(C)c1ccc(N2C(=O)CN3C(=O)CCC32)cc1 (stereo not drawn) [Example 33, 1-(4-Isopropyl-phenyl)-tetrahydro-pyrrolo [1,2-a]imidazole-2,5-dione] | 124 to 125 | –
8 | Cc1cccc(N2C(=O)CN3C(=O)CCC32)c1 (stereo not drawn) [Example 5, 1-m-Tolyl-tetrahydro-pyrrolo[1,2-a]imidazole-2,5-dione] | 92 to 93 | showed an antihyperalgic effect
9 | COc1cccc(N2C(=O)CN3C(=O)CCC32)c1 (stereo not drawn) [Example 12, 1-(3-Methoxy-phenyl)-tetrahydro-pyrrolo [1,2-a]imidazole-2,5-dione] | 94 to 95 | –
10 | N#Cc1ccc(N2C(=O)CN3C(=O)CCC32)cc1 (stereo not drawn) | 175 to 176 | –
11 | O=C1CN2C(=O)CCC2N1 (stereo not drawn) [DIMIRACETAM, 2,5-dioxohexahydro-1H-pyrrolo[1,2-a]imidazole, reference compound] | – | showed an antihyperalgic effect
12 | Cc1ccc(N2C(=O)CN3C(=O)CCC32)cc1 (stereo not drawn) [Example 6, 1-p-Tolyl-tetrahydro-pyrrolo[1,2-a]imidazole-2,5-dione] | – | showed an antihyperalgic effect
13 | Cc1c(F)cccc1N1C(=O)CN2C(=O)CCC21 (stereo not drawn) [Example 8] | 135 to 137 | –
14 | CC1C(=O)N(c2ccccc2)C2CCC(=O)N12 (stereo not drawn) [Example 25, 3-Methyl-1-phenyl-tetrahydro-pyrrolo [1,2-a]imidazole-2,5,-dione] | 137 to 138 | –
15 | Cc1ccc(N2C(=O)CN3C(=O)CCC32)cc1C (stereo not drawn) [Example 20, 1-(3,4-Dimethyl-phenyl)-tetrahydro-pyrrolo [1,2-a]imidazole-2,5-dione] | 142 to 143 | –
16 | NCC1(CC(=O)O)CCCCC1 [GABAPENTIN, reference compound] | – | showed an antihyperalgic effect
17 | O=C1CCC2N1CC(=O)N2c1ccc(CO)cc1 (stereo not drawn) [Example 34, 1-(4-Hydroxymethyl-phenyl)-tetrahydro-pyrrolo[1,2-a]imidazole-2,5-dione] | 159 to 161 | –
18 | O=C1CCC2N1CC(=O)N2c1cccnc1 (stereo not drawn) [Example 41, 1-Pyridin-3-yl-tetrahydro-pyrrolo[1,2-a] imidazole-2,5-dione] | 180 to 182 | –
19 | O=C1CCC2N1CC(=O)N2c1cccc(F)c1 (stereo not drawn) [Example 44, 1-(3-Fluoro-phenyl)-tetrahydro-pyrrolo [1,2-a]imidazole-2,5-dione] | 145 to 149 | –
20 | CC(C)c1cccc(N2C(=O)CN3C(=O)CCC32)c1 (stereo not drawn) [Example 22, 1-(3-Isopropyl-phenyl)-tetrahydro-pyrrolo [1,2-a]imidazole-2,5-dione] | 81 to 82 | showed an antihyperalgic effect

Row | SMILES | melting point [°C] | antihyperalgic effect compared with saline or vehicle treated group [1]
21 | Cc1cc(Cl)ccc1N1C(=O)CN2C(=O)CCC21 (stereo not drawn) [Example 10, 1-(4-Chloro-2-methyl-phenyl)-tetrahydro-pyrrolo[1,2-a]imidazole-2,5-dione] | 122 to 124 | –
22 | N#Cc1cccc(N2C(=O)CN3C(=O)CCC32)c1 (stereo not drawn) [Example 13, 1-(3-Cyano-phenyl)-tetrahydro-pyrrolo [1,2-a]imidazole-2,5-dione] | 128 to 130 | showed an antihyperalgic effect
23 | CC[C@@H](C(N)=O)N1CCCC1=O [LEVETIRACETAM, 2-(2-oxopyrrolidin-1-yl) butyramide, reference compound] | – | showed an antihyperalgic effect
24 | Cc1cc(F)cc(N2C(=O)CN3C(=O)CCC32)c1 (stereo not drawn) [Example 27, 1-(3-Fluoro-5-methyl-phenyl)-tetrahydro-pyrrolo[1,2-a]imidazole-2,5-dione] | 111 to 113 | –
25 | O=C1C(Cc2ccccc2)N2C(=O)CCC2N1c1ccccc1 (stereo not drawn) [Example 24, 3-Benzyl-1-phenyl-tetrahydro-pyrrolo [1,2-a]imidazole-2,5,-dione] | 134 to 136 | –
26 | CC12CCC(=O)N1CC(=O)N2c1ccccc1 (stereo not drawn) [Example 29, 7a-Methyl-1-phenyl-tetrahydro-pyrrolo [1,2-a]imidazole-2,5-dione] | 154 to 155 | –
27 | O=C1CCC2N1CC(=O)N2c1ccccn1 (stereo not drawn) [Example 40, 1-Pyridin-2-yl-tetrahydro-pyrrolo[1,2-a] imidazole-2,5-dione] | 139 to 140 | –
28 | Cc1ccc(F)cc1N1C(=O)CN2C(=O)CCC21 (stereo not drawn) [Example 7, 1-(5-Fluoro-2-methyl-phenyl)-tetrahydro-pyrrolo[1,2-a]imidazole-2,5-dione] | 147 to 148 | –
29 | Cc1ccc(N2C(=O)CN3C(=O)CCC32)cc1F (stereo not drawn) [Example 28, 1-(3-Fluoro-4-methyl-phenyl)-tetrahydro-pyrrolo[1,2-a]imidazole-2,5-dione] | 136 to 137 | –
30 | Cc1cc(C)cc(N2C(=O)CN3C(=O)CCC32)c1 (stereo not drawn) [Example 19, 1-(3,5-Dimethyl-phenyl)-tetrahydro-pyrrolo [1,2-a]imidazole-2,5-dione] | 103 to 104 | –
31 | O=C1CCC2N1CC(=O)N2c1cccc(O)c1 (stereo not drawn) [Example 15, 1-(3-Hydroxy-phenyl)-tetrahydro-pyrrolo [1,2-a]imidazole-2,5-dione] | 210 to 211 | –
32 | O=C1CCC2N1CC(=O)N2c1ccc2ccccc2c1 (stereo not drawn) [Example 21, 1-Naphthalen-2-yl-tetrahydro-pyrrolo [1,2-a]imidazole-2,5-dione] | 175 to 176 | –
33 | CCOC(=O)c1ccc(N2C(=O)CN3C(=O)CCC32)cc1 (stereo not drawn) [Example 36, 4-(2,5-Dioxo-hexahydro-pyrrolo[1,2-a]imidazole-1-yl)-benzoic acid ethyl ester] | 158 to 159 | –
34 | O=C1CCC2N1CC(=O)N2c1ccc(F)cc1 (stereo not drawn) [Example 38, 1-(4-Fluoro-phenyl)-tetrahydro-pyrrolo [1,2-a]imidazole-2,5-dione] | 158 to 159 | –
35 | Cc1ccc(N2C(=O)CN3C(=O)CCC32)nc1 (stereo not drawn) [Example 42, 1-(5-Methylpyridin-2-yl)-tetrahydropyrrolo [1,2-a]imidazole-2,5-dione] | 158 to 159 | –
36 | Cc1ccccc1N1C(=O)CN2C(=O)CCC21 (stereo not drawn) [Example 2, 1-o-tolyl-tetrahydro-1H-pyrrolo[1,2-a]imidazole-2,5-dione] | 138 to 139 | showed an antihyperalgic effect
37 | Cc1cc(N2C(=O)CN3C(=O)CCC32)ccc1Cl (stereo not drawn) [Example 23, 1-(4-Chloro-3-methyl-phenyl)-tetrahydro-pyrrolo[1,2-a]imidazole-2,5-dione] | 138 to 139 | –
38 | CC(C)CC1C(=O)N(c2ccccc2)C2CCC(=O)N12 (stereo not drawn) [Example 26, 3-Isobutyl-1-phenyl-tetrahydro-pyrrolo [1,2-a]imidazole-2,5,-dione] | 101 to 102 | –
39 | CS(=O)(=O)c1ccc(N2C(=O)CN3C(=O)CCC32)cc1 (stereo not drawn) [Example 37, 1-(4-Methanesulfonyl-phenyl)-tetrahydro-pyrrolo[1,2-a]imidazole-2,5-dione] | 143 to 145 | –
40 | COc1ccc(N2C(=O)CN3C(=O)CCC32)cc1 (stereo not drawn) [Example 18, 1-(4-Methoxy-phenyl)-tetrahydro-pyrrolo[1,2-a]imidazole-2,5-dione] | 210 to 211 | –
